According to patent US11433111B2 (priority 2019, dated 2022):

Tested on: scopolamine induced memory impairment in male Swiss albino mice
Assay: Passive avoidance test, scopolamine induced memory impairment
Settings: 5 mg/kg p.o.; scopolamine 1 mg/kg i.p.; mean ± SEM of six mice
Excerpt: The rectangular larger compartment has 50 cm×50 cm grid floor and wooden walls of 35 cm height. The box was illuminated with a 100-W bulb placed 150 cm above the center. It has a roof, which can be opened or closed. One of the walls has a 6 cm×6 cm opening which to a dark smaller compartment having dimensions of 15 cm×15 cm. This compartment is provided with an electrifiable grid, which is connected to a constant current stimulator, and a ceiling that can be opened or closed. The connection between the two compartments can be closed with a sliding door made of transparent Plexiglas. […] The experiment was divided into three parts: An exploration test, Learning (Electric shock), and Retention testing.
The exploration test is done in three trials. During this, mice are placed in the center of the larger compartment facing away from the entrance to the dark compartment. The door between the two compartments is kept open. The mice are allowed to explore the apparatus (both larger and smaller compartments) for 3 minutes. In each trial, two things will be examined: Time taken by the mice to enter the dark compartment at each trial; and the total time spent by the animal in the dark compartment, using a stop-watch.
After the last exploration trial, the mice are placed in the larger compartment as done in the trial sessions. […]

`COc1cc2c(cc1OC)C(=O)C(CC1CCN(Cc3ccccc3)CC1)C2` (stereo not shown) [Donepezil] was tested. Which No. of crossings did it give?
Its No. of crossings is 1.17 ± 0.17.
